{"source": "patent US6756480B2", "about": "“Modulators of receptors for parathyroid hormone and parathyroid hormone-related protein” (Amgen Inc., priority 2000, dated 2004)", "assay_type_in_all_cases": "in vivo", "key": {"OVX cynomolgus monkeys": {"system": "OVX cynomolgus monkeys", "experiment": "Single subcutaneous injection into OVX cynomolgus monkeys, serum total calcium", "method": "Monkeys were injected with PTH-(1-34)-Fc at doses of 1-30 μg/kg (n=1/group) or 100-1000 μg/kg (n=2/group). Serum was analyzed for total calcium. The dotted line indicates the threshold for hypercalcemia, based on an elevation of calcium greater than three standard deviations above the normal mean, on two or more consecutive timepoints.\nThe optimal dosing of primates may be less frequent compared to rats or mice. Weekly (or less frequent) dosing may be optimal in primates, based on the observation that the hypercalcemic response of OVX cynomolgus monkeys to a single subcutaneous injection of PTH-(1-34)-Fc (10-34 nmol/kg) persisted for about 168 hours (FIG. 11)."}, "mice [1]": {"system": "mice", "experiment": "Chronic hypercalcemia induced by PTH-(1-34)-Fc challenge, antagonist given SC", "details": "30 mg/kg single SC, 24 h post challenge, vehicle-treated normal mice (normal control 1.35); the values are: blood ionized calcium", "method": "Normal male mice were challenged once by SC injection with PTH-(1-34)-Fc (30 mg/kg) (open circles), or with vehicle (PBS, open squares). Some PTH-(1-34)-Fc-challenged mice were treated once, at the time of challenge, with [Asn10,Leu11]PTHrP-(7-34)-Fc at 10 (closed triangle), 30 (closed circle), or 100 mg/kg (closed square). […] Data represent means±SEM, n=5 mice/group.\nIn order to test the ability of [Asn10,Leu11]PTHrP-(7-34)-Fc to antagonize more chronic hypercalcemia, we used PTH-(1-34)-Fc as a long-acting calcemic agent. This study also represents a model for primary and secondary hyperparathyroidism, diseases which are characterized by persistent elevation of PTH levels. In vehicle-treated mice, a single SC injection of PTH-(1-34)-Fc (30 mg/kg) caused a robust hypercalcemic response in normal mice, reaching a level of 2.75 mg/dl at 24 h post challenge (vs. normal control value of 1.35)."}, "male BDF1 mice": {"system": "male BDF1 mice", "experiment": "Monotherapy in adult mice: twice-weekly PTH-(1-34)-Fc versus daily PTH-(1-34), tibial BMD by pQCT", "method": "Daily PTH [PTH-(1-34)] was given at 80 μg/kg/day (20 nmol/kg/day).\nBriefly, male BDF1 mice (4 months of age) were treated twice per week by subcutaneous injection with various doses of PTH-(1-34)-Fc or with vehicle (PBS). Other mice were treated daily with SC injections of PTH-(1-34) at a dose of 80 μg/kg/day (20 nmol/kg/day), a treatment regimen which is optimal for increasing bone mass in rodents (M. Gunness-Hey and J. M. Hock, Metab. Bone Dis. & Rel. Res. 5:177-181, 1984). After 3 weeks, mice were sacrificed and tibiae were analyzed for bone mineral density (BMD) via pQCT (FIG. 10)."}, "[2]": {"system": "aged ovariectomized (OVX) rats", "experiment": "Monotherapy in aged ovariectomized (OVX) rats: twice-weekly treatment, BMD by DEXA and serum calcium", "method": "Eleven months after OVX, rats were treated twice per week with phosphate-buffered saline (PBS, vehicle) or with APD (0.5 mg/kg) or with PTH-(1-34)-Fc (50 nmol/kg). DEXA was performed weekly. Blood was drawn 24 hours after the second weekly injection, when the calcemic effects of PTH-Fc are typically maximal. The effects of PTH-Fc administration on lumbar BMD (FIG. 11A), tibia/femur BMD (FIG. 11B), femoral metaphysis BMD (FIG. 11C), and serum calcium (FIG. 11D) were determined.\nSprague Dawley rats were OVX'd at 3 months of age and allowed to lose bone for 11 months. Other rats were sham-operated and treated twice per week with vehicle (PBS). OVX rats were treated twice per week with SC injections of either vehicle or the bisphosphonate APD (pamidronate, 0.5 mg/kg), or with PTH-(1-34)-Fc (50 nmol/kg) or with APD+PTH-(1-34)-Fc. BMD was determined weekly via dual energy X-ray absorptiometry (DEXA). Rats were sacrificed after 4 weeks of treatment. At the start of treatment, OVX rats had significant reductions in BMD at all skeletal sites analyzed, compared to vehicle-treated […] (FIG. 11, p<0.05, 2-way ANOVA)."}, "rats": {"system": "rats", "experiment": "Hypercalcemic response to a single SC injection in rats", "details": "single SC injection 340 nmol/kg", "method": "(See FIG. 10.) In an aged OVX rat model of osteoporosis, twice weekly dosing was able to reverse more than 50% of the bone loss induced by one year of estrogen ablation. The effect seen in the aged rat model was even greater when combined with a bisphosphonate (APD). In rats, a single SC injection of PTH-(1-34)-Fc (340 nmol/kg) caused a hypercalcemic response which persisted for 72 hours (FIG. 8). This duration is concordant with the rate of clearance of PTH-(1-34)-Fc from the serum, and is consistent with an optimal twice-weekly dosing regimen in rats."}, "mice [3]": {"system": "mice", "experiment": "Mouse bioassay: SC injection days 0, 5, 10; clinical chemistry (calcium, AP, TRAP) and tibial pQCT", "method": "Peripheral blood was obtained daily for 3 days following single subcutaneous injections of the indicated compounds.\nPeripheral quantitative computed tomography (pQCT) was performed on the proximal tibial metaphysis of mice on day 15, after injections of PTH constructs on day 0, 5 and 10.\nWe then tested the effects of PTH-(1-34), PTH-(1-34)-Fc, PTH-(1-31)-Fc and PTH-(1-30)-Fc in mice. Four week old male mice were injected on days 0, 5, and 10 with vehicle or with PTH fragments, by SC injection. Peripheral blood was obtained for clinical chemistry at 24, 48, and 72 h. Mice were killed on day 15, vertebrae, tibiae and femurs were harvested for histology and one tibia was collected for bone density measurements (peripheral quantitative computed tomography, pQCT). Clinical chemistry endpoints included total serum calcium, serum alkaline phosphatase (AP, a marker of osteoblast activity), and serum tartrate-resistant acid phosphatase (TRAP, a marker of osteoclast activity). For each animal, the ratio of AP:TRAP was calculated as an index of relative osteoblast activity compared to osteoclast activity. A higher AP:TRAP ratio would indicate a potentially more anabolic agent."}, "[4]": {"details": "3 weeks, PTH-(1-34) daily 80 μg/kg/day, PTH-(1-34)-Fc twice weekly, various doses"}, "[5]": {"details": "two highest doses, 50 and 150 nmol/kg twice weekly"}}}
{"substance": "PTH-(1-34)-Fc: human PTH-(1-34), SVSEIQLMHNLGKHLNSMERVEWLRKKLQDVHNF, linked at its C-terminus to an Fc domain", "values": [{"measurement": "time within which a single subcutaneous dose is cleared", "setting": "OVX cynomolgus monkeys; primates, inferred from calcemic response", "result": "≤ 1", "unit": "week"}, {"measurement": "persistence of hypercalcemic response", "setting": "OVX cynomolgus monkeys; single subcutaneous injection 10-34 nmol/kg", "result": "about 168 hours"}, {"measurement": "level reached in hypercalcemic response", "setting": "mice [1]", "result": 2.75, "unit": "mM"}, {"measurement": "cancellous BMD compared to vehicle", "setting": "male BDF1 mice; [4]", "result": "dose-dependent increases"}, {"measurement": "total tibial BMD compared to vehicle", "setting": "male BDF1 mice; [4]", "result": "dose-dependent increases"}, {"measurement": "cortical BMD in the tibia", "setting": "male BDF1 mice; 3 weeks, PTH-(1-34) daily, PTH-(1-34)-Fc twice weekly, various doses", "result": "dose-dependent increase"}, {"measurement": "bone density and bone volume compared to daily PTH-(1-34)", "setting": "male BDF1 mice; adult mice, twice weekly dosing", "result": "greater increases in bone density and bone volume"}, {"measurement": "cortical BMD versus vehicle or daily PTH-(1-34)", "setting": "male BDF1 mice; highest dose twice weekly, p<0.05", "result": "significantly greater"}, {"measurement": "cancellous BMD versus vehicle or daily PTH-(1-34)", "setting": "male BDF1 mice; [5]", "result": "significantly greater"}, {"measurement": "total BMD versus vehicle or daily PTH-(1-34)", "setting": "male BDF1 mice; [5]", "result": "significantly greater"}, {"measurement": "calcemic response", "setting": "[2]; 50 nmol/kg twice per week, alone", "result": "mild and transient hypercalcemic response"}, {"measurement": "BMD at the femoral metaphysis", "setting": "[2]; PTH-(1-34)-Fc 50 nmol/kg twice per week, alone or with APD 0.5 mg/kg, p<0.05", "result": "significant increase in BMD"}, {"measurement": "day after which hypercalcemic response resolved spontaneously", "setting": "[2]; despite continued treatments", "result": "> 10", "unit": "days"}, {"measurement": "reversal of bone loss induced by one year of estrogen ablation", "setting": "[2]; twice weekly dosing", "result": "more than 50%"}, {"measurement": "duration of treatment at which BMD increase at the femoral metaphysis was significant", "setting": "[2]; twice-weekly treatment", "result": 4, "unit": "weeks"}, {"measurement": "persistence of hypercalcemic response", "setting": "rats", "result": 72, "unit": "h"}, {"measurement": "calculated AP:TRAP ratio", "setting": "mice [3]; 300 nmoles/kg", "result": "increased over time"}, {"measurement": "serum AP (osteoblast marker)", "setting": "mice [3]; 300 nmoles/kg (given for PTH-(1-34)-Fc), 72 h", "result": "significantly elevated"}, {"measurement": "time of peak serum calcium", "setting": "mice [3]; 300 nmoles/kg SC", "result": 24, "unit": "h"}, {"measurement": "serum calcium", "setting": "mice [3]; 300 nmoles/kg SC (equimolar), 24, 48, 72 h", "result": "dramatic and sustained increase"}, {"measurement": "bone mineral density (proximal tibial metaphysis)", "setting": "mice [3]; 300 nmoles/kg on day 0, 5, 10, pQCT day 15", "result": "no effect"}, {"measurement": "serum TRAP (osteoclast marker)", "setting": "mice [3]; mice, after single SC injection", "result": "not significantly changed"}]}
